From patent US5849915A (priority 1996, dated 1998)

Key:
[1] = set-up: species or system mice; conditions: mouse, in vivo, sc, 30 min
[2] = set-up: species or system mice; conditions: mouse, in vivo, sc
[3] = set-up: species or system mice; conditions: mouse, in vivo

Structure (SMILES): CN1CC[C@]23c4c5ccc(O)c4O[C@H]2[C@@H](O)C=C[C@H]3[C@H]1C5 [Morphine]
- ED50 (95% confidence limits) in the hot plate [1]: 5.81 mg/kg

Structure (SMILES): CO[C@]12CC[C@@]3(C[C@@H]1[C@](C)(O)C(C)(C)C)[C@H]1Cc4ccc(O)c5c4[C@@]3(CCN1CC1CC1)[C@H]2O5 [Buprenorphine]
- ED50 (95% confidence limits) in the acetic acid writhing test [2]: 6.93 µg/kg
- anti-Mor effect (in words) [3]: antagonised Mor analgesia
- AD50 (95% confidence limits), dosage required to inhibit Mor analgesia by 50% ([3]; sc): 1.33 mg/kg
